These are literature values, as cited in US20220160758A1, “ANTIVIRAL, ANTIBACTERIAL AND/OR ANTI FUNGAL COMPOSITIONS, APPLICATIONS AND THERAPY” (AVITAS BIO CORP., priority 2020, published 2022).

For data set [1], the system named is bacteriophage PR4. To be noted: in vitro.
Data set [2] relates to bacteriophage.
Data set [3] has as its system gram-positive and gram-negative microorganisms. To be noted: at the concentrations tested.

Turning to `CCCCCCCC/C=C\CCCCCCCC(=O)O` [oleic acid], in data set [1], the “inhibition of viral replication” value is on record as “most effective”. The inactivating the virus result in data set [2] is reported as “most effective”.
On to `CCCCC/C=C\C/C=C\C/C=C\C/C=C\CCCC(=O)O` [arachidonic acid], for which, in data set [3], the growth inhibition entry is “not inhibitory”. Further, the “inhibition of viral replication” value in data set [1] is “moderately effective”.
Consider `CCCCCC/C=C\CCCCCCCC(=O)O` [palmitoleic acid], for which the “inhibition of viral replication” value in data set [1] is “most effective”.
